Measurements as given in article PMC2864300, “Regulation of NOXO1 Activity through Reversible Interactions with p22^phox and NOXA1” (PLoS ONE, 2010).
Values belong to the compound of their own block, whether it stands above or below them. Where a SMILES comes first, the peptide text is derived from it. Where no end group is shown, it is not given here.

Tests used:
[1] = target: T1, tandem SH3 domains of human NOXO1 (Homo sapiens, UniProt Q8NFA2); experiment: ITC, binding to human NOXO1 tandem SH3 domains; conditions: 18°C; for Kd: pH 7.4, titrated against tandem SH3 domains
T1 construct: was titrated against the tandem SH3 domains as well as against the individual SH3A and SH3B domains; GST (N, cleaved yes); made in house; host or cells: Escherichia coli BL21 STAR
T1 sequence (Q8NFA2 157-290 isoform Q8NFA2-4): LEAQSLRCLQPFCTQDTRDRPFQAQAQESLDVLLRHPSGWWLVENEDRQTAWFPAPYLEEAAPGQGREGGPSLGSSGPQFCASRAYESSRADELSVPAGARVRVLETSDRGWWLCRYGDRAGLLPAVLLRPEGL
Protocol: (§1) Complex formation between NOXO1, NOXA1 and p22^phox fragments or peptides were measured by isothermal titration calorimetry using a MicroCal VP-ITC calorimeter (MicroCal Inc., Northampton, USA). All proteins were dialysed against ITC buffer (150 mM NaCl, 1 mM DTT and 50 mM HEPES, pH 7.4) and performed at 18°C. All peptides were dissolved in ITC buffer. Typically, 20–40 µM of protein in the cell was titrated by stepwise injections of a total of 200–300 µM of the ligand. Heats of dilution were determined by titrating protein or peptide into ITC buffer and subtracted from the raw ITC data prior to analysis with the software, Origin version 7.0, assuming a single-site binding model. Data were averaged over three to five experiments.

human NOXA1 SH3 = target: T2, human NOXA1 SH3 (Homo sapiens, UniProt Q86UR1); experiment: ITC, binding to human NOXA1 SH3; conditions: 18°C, 150 mM NaCl, 1 mM DTT, 50 mM HEPES, pH 7.4, peptide in syringe, human NOXA1 SH3 in cell, averaged over three to five experiments, read-out: K (Kd)
T2 construct: GST (N, cleaved yes); made in house; host or cells: Escherichia coli BL21 STAR
T2 sequence (Q86UR1 399-458 limits assumed): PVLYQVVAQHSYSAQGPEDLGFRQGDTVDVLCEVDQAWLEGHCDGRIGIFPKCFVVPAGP
Protocol: as §1

[2] = test system: interaction between NOXO1 and p22^phox; conditions: cited from earlier work
From the text: In this study we provide evidence that the assembly of the NOX1 oxidase complex can be regulated through reversible protein-protein interactions. […] However, the inhibitory effect of the C-terminal tail is less pronounced in NOXO1 than in the homologous p47^phox subunit of the phagocytic oxidase, and may explain why the NOX1 system is capable of producing low levels of superoxide, in a constitutive ...

human NOX1 = conditions: ref [32]–[34]; cited from earlier work
[3] = test system: mouse proteins (NOX1 system); conditions: ref [32]–[34]; cited from earlier work

Compound: CCCCC/C=C\C/C=C\C/C=C\C/C=C\CCCC(=O)O [arachidonic acid]
effect on interaction between NOXO1 and p22^phox [2]: could increase the interaction between NOXO1 and p22^phox

Compound: CCCCCCCCCCCCCC(=O)O[C@@H]1[C@@H](C)[C@@]2(O)[C@@H](C=C(CO)C[C@]3(O)C(=O)C(C)=C[C@@H]23)[C@@H]2C(C)(C)[C@]12OC(C)=O [PMA]
superoxide production by human NOX1 (human NOX1): increased
superoxide production with the mouse proteins [3]: a similar increase could not be observed with the mouse proteins

Other lines, results leading:

Kd [1]: ~50 µM
Kd (human NOXA1 SH3): > 70 µM
Compound: TAPPPTVPTRPS [PeptideA-short]

Kd [1]: ~50 µM
Compound: CC[C@H](C)[C@H](NC(=O)[C@H](C)NC(=O)CNC(=O)[C@@H]1CCCN1C(=O)[C@H](CO)NC(=O)[C@@H]1CCCN1C(=O)[C@H](CCCNC(=N)N)NC(=O)[C@@H](NC(=O)[C@@H]1CCCN1C(=O)[C@@H](NC(=O)[C@@H](NC(=O)[C@@H]1CCCN1C(=O)[C@@H]1CCCN1C(=O)[C@@H]1CCCN1C(=O)[C@H](C)NC(=O)[C@@H](N)[C@@H](C)O)[C@@H](C)O)C(C)C)[C@@H](C)O)C(=O)N[C@@H](CCC(N)=O)C(=O)N[C@@H](CO)C(=O)N[C@@H](CCCNC(=N)N)C(=O)N[C@@H](CS)C(=O)N[C@@H](CS)C(=O)N[C@H](C(=O)N[C@H](C(=O)N[C@H](C(=O)N[C@@H](CCCNC(=N)N)C(=O)N[C@@H](CCCNC(=N)N)C(=O)N[C@@H](C)C(=O)N[C@@H](CC(C)C)C(=O)N[C@@H](CCC(=O)O)C(=O)O)[C@@H](C)O)C(C)C)[C@@H](C)O [PeptideA] (H-TAPPPTVPTRPSPGAIQSRCCTVTRRALE-OH)

binding to the tandem SH3 domains (qualitative) ([1]; pH 7.4, data not shown): no binding was detected
Compound: ERRPRRQGRPRG [peptide corresponding to basic region, residues 347–359, of C-terminal tail of human NOXO1]
